Columns and labels:
Assay type in all cases: in vivo
Abutilon theophrasti = experiment: Post-emergence herbicidal efficacy at 320 g/ha, ABUTH; conditions: rated visually after about 3 weeks vs untreated controls, 100% = plants have died
Method in brief: (§1)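 Visual % activity vs untreated controls, ~3 wk after spraying; 100% = plants dead, 0% = like control. Greenhouse pot plants in sandy loam, treated at one-leaf stage (2–3 wk post-sowing). WP/EC in water + 0.5% additive, 600 L/ha spray volume.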

Amaranthus retroflexus [1] = experiment: Post-emergence herbicidal efficacy at 320 g/ha, AMARE; conditions: rated visually after about 3 weeks vs untreated controls, 100% = plants have died
Method in brief: as §1

Kochia scoparia [2] = experiment: Post-emergence herbicidal efficacy at 320 g/ha, KCHSC; conditions: rated visually after about 3 weeks vs untreated controls, 100% = plants have died
Method in brief: as §1

Setaria viridis = experiment: Post-emergence herbicidal efficacy at 320 g/ha, SETVI; conditions: rated visually after about 3 weeks vs untreated controls, 100% = plants have died
Excerpt: Unwanted plants/weeds: • ABUTH: Abutilon theophrasti • ALOMY: Alopecurus myosuroides • AMARE: Amaranthus retroflexus • DIGSA: Digitaria sanguinalis • ECHCG: Echinochloa crus-galli • KCHSC: Kochia scoparia • LOLRI: Lolium rigidum • MATIN: Matricaria inodora • POAAN: Poa annua • POLCO: Polygonum convolvulus • SETVI: Setaria viridis • STEME: Stellaria media • VERPE: Veronica persica • VIOTR: Viola tricolor A. Post-Emergence Herbicidal Efficacy at 320 g/ha
Seeds of mono- and dicotyledonous weed plants were placed in plastic pots in sandy loam soil (doubly sown with in each case one species of mono- or dicotyledonous weed plants per pot), covered with soil and cultivated in a greenhouse under controlled growth conditions. 2 to 3 weeks after sowing, the test plants were treated at the one-leaf stage. The compounds of the invention, formulated in the form of wettable powders (WP) or as emulsion concentrates (EC), were applied to the green parts of the plants as aqueous suspension or emulsion with addition of 0.5% additive at a water application rate equivalent to 600 litres per hectare. After the test plants had been kept in the greenhouse under optimum growth conditions for about 3 weeks, the activity of the preparations was rated visually in comparison to untreated controls.
For example, 100% activity=the plants have died, 0% activity=like control plants.
Tables A1 to A10 below show the effects of selected compounds of the general formula (I) according to Table 1 on various harmful plants and at an application rate corresponding to 320 g/ha, which were obtained by the trial procedure specified above.

Stellaria media = experiment: Post-emergence herbicidal efficacy at 320 g/ha, STEME; conditions: rated visually after about 3 weeks vs untreated controls, 100% = plants have died
Method in brief: as §1

Veronica persica [3] = experiment: Post-emergence herbicidal efficacy at 320 g/ha, VERPE; conditions: rated visually after about 3 weeks vs untreated controls, 100% = plants have died
Method in brief: as §1

Amaranthus retroflexus [4] = experiment: Pre-emergence herbicide efficacy at 320 g/ha, AMARE; conditions: scored visually after about 3 weeks vs untreated controls, 100% = plants have died
Method in brief: (§2)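 Pre-emergence soil-surface spray of WP or EC formulation in water at 600 L/ha with 0.5% additive, over seeds covered in sandy loam. Scoring visual, ~3 weeks, % of untreated.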

Digitaria sanguinalis = experiment: Pre-emergence herbicide efficacy at 320 g/ha, DIGSA; conditions: scored visually after about 3 weeks vs untreated controls, 100% = plants have died
Method in brief: as §2

Kochia scoparia [5] = experiment: Pre-emergence herbicide efficacy at 320 g/ha, KCHSC; conditions: scored visually after about 3 weeks vs untreated controls, 100% = plants have died
Method in brief: as §2

Veronica persica [6] = experiment: Pre-emergence herbicide efficacy at 320 g/ha, VERPE; conditions: scored visually after about 3 weeks vs untreated controls, 100% = plants have died
Method in brief: as §2

## COCc1cnn(-c2c(C#N)cccc2Nc2ncc(Cl)cn2)c1 [Example 1-68]
Abutilon theophrasti
  Post-emergence efficacy at 320 g/ha against ABUTH in %: 90%
Amaranthus retroflexus [1]
  Post-emergence efficacy at 320 g/ha against AMARE in %: 100%
Kochia scoparia [2]
  Post-emergence efficacy at 320 g/ha against KCHSC in %: 100%
Setaria viridis
  Post-emergence efficacy at 320 g/ha against SETVI in %: 90%
Stellaria media
  Post-emergence efficacy at 320 g/ha against STEME in %: 100%
Veronica persica [3]
  Post-emergence efficacy at 320 g/ha against VERPE in %: 100%
Amaranthus retroflexus [4]
  Pre-emergence efficacy at 320 g/ha against AMARE in %: 100%
Digitaria sanguinalis
  Pre-emergence efficacy at 320 g/ha against DIGSA in %: 100%
Kochia scoparia [5]
  Pre-emergence efficacy at 320 g/ha against KCHSC in %: 100%
Veronica persica [6]
  Pre-emergence efficacy at 320 g/ha against VERPE in %: 90%

— patent US20250311727A1, “SUBSTITUTED 2-AMINOAZINES AND SALTS THEREOF, AND USE THEREOF AS HERBICIDAL ACTIVE SUBSTANCES” (BAYER AKTIENGESELLSCHAFT, priority 2022, published 2025)
